Assay results published in paper PMC12122562, “Phase 1 studies of the indenoisoquinolines LMP776 and LMP744 in patients with solid tumors and lymphomas” (Cancer Chemotherapy and Pharmacology, 2025).
Entries after “also recorded” stand apart in the source; their conditions may differ. Like-named read-outs stand apart in the source and are kept apart here.

Columns and labels:
[1] = test system: γH2AX; assay: qIF of paired tumor biopsies: nuclear γH2AX; assay type: in vivo, human
Excerpt: The LMP744 protocol collected pre-treatment (baseline) and on-treatment paired biopsies from patients in the expansion cohort. Core needle tumor biopsies (18-gauge) were collected and flash-frozen at point of collection per NCI SOPs (https://dctd.cancer.gov/ResearchResources/biomarkers/docs/par/SOP340507_Biopsy_Frozen.pdf) as described to preserve labile post-translational modifications such as phosphorylation. Biopsy pairs were thawed in formalin, fixed in paraffin embedded together with control tissues following NCI SOP340550 (https://dctd.cancer.gov/ResearchResources/biomarkers/DDR3/SOP340550_Biopsy_Section_Testis_Jejunum_Controls.pdf). TOP1 and TOP1cc were measured with a cocktail containing custom-conjugated rabbit monoclonal antibody anti-TOP1-DIG (Abcam, EPR5376 (2)) and mouse monoclonal antibody anti-TOP1cc (clone 1.1A [34, 35], EMD Millipore) that were detected with reporter secondary antibodies AlexaFluor-647 IgG fraction monoclonal mouse anti-digoxin (Jackson ImmunoResearch) and goat/anti-mouse AlexaFluor-488, respectively. Phosphorylated KAP1 (pKAP1, phosphorylated at S824) was measured using custom-conjugated pKAP1-pS824-DNP (Abcam, EPR5248) and detected with AlexaFluor-488 conjugated with anti-dinitrophenyl-KLH rabbit IgG Antibody Fraction (DNP-488, ThermoFisher). […] TOP1, γH2AX, pNBS1, and pKAP1 were measured as the percentage of DAPI-stained tumor cell nuclear area that was positive for the biomarker (% NAP); RAD51 [19] and TOP1cc was measured as a function of the percentage of nuclei with ≥ 5 foci (RAD51) or ≥ 19 foci (TOP1cc). Apoptosis was measured using a validated IFA of tumor cells positive for both cCasp3 blebbing in the cytoplasm and γH2AX in the nucleus. Anti-SLFN11 rabbit monoclonal antibody (Cell Signaling Technology, clone D8W1B) was detected by immunohistochemistry (IHC) using Bond Polymer Detection kit (Leica) and scanned in 20X widefield Aperio (Leica), and the distribution of staining intensity of tumor cell nuclei graded as 0, 1 + , 2 + or 3 + was converted into an H-score. […]

[2] = Plasma pharmacokinetics of LMP776, non-compartmental; assay type: in vivo, human; conditions: for half-life / AUC(0-inf) / AUC(0-t) / Cmax / Tmax: human, plasma, intravenous
Protocol: Blood was collected during cycle 1 in the LMP744 study on C1D1 at the end of infusion (EOI), then again at 0.25, 0.5, 1, 2, 4, and 6 h after EOI. Blood was also collected prior to infusion and at EOI on days 2–5 during cycle 1, then again at 1 week (168 h) after C1D1 EOI. Samples were collected in EDTA tubes with 2 mL of blood per sample. Samples were centrifuged and plasma was stored at − 70 °C. Samples were analyzed using a validated LC–MS or LC–MS/MS method for each IIQ as previously described. Plasma-time data were analyzed using WinNonlin (Pharsight, Mountain View, CA). AUC values were calculated by non-compartmental analysis and end-of-infusion concentrations were measured on days 1 and 5 of cycle 1. Sample collection and analysis of LMP776 pharmacokinetics were performed as previously described.

## COc1cc2c3c(n(CCCNCCO)c(=O)c2cc1OC)-c1cc2c(cc1C3=O)OCO2 [LMP744]
[1]; 6 patients at MTD, P = 0.1715
  γH2AX, cohort mean treatment effect: overall lack of treatment effect within the cohort
[1]; patient 29 (SCLC, cPR) only, MTD, C1D2 2–4 h after dosing
  Nuclear γH2AX in tumor cells on treatment: above 4 % NAP
[1]; patient with cPR
  Pharmacodynamic responses in tumor biopsies: increased RAD51, phosphorylated KAP1 (pKAP1), γH2AX, and cleaved caspase-3 (cCasp3)

## COc1cc2c3c(n(CCCn4ccnc4)c(=O)c2cc1OC)-c1cc2c(cc1C3=O)OCO2 [LMP776]
[2]; DL1, 1 mg/m2, n=1
  Cl: 2.78 L/h/m2
  Vd: 63.4 L/m2
  Vss: 57.9 L/m2
  AUC(0-inf): 880 ng·h/mL
  AUC(0-t): 359 ng·h/mL
  Cmax: 46.9 ng/mL
  Tmax: 1 h
[2]; DL2, 2 mg/m2, n=7
  Cl: 4.0 (1.1) L/h/m2
  Vd: 58.4 L/m2
  Vss: 54.7 L/m2
  AUC(0-inf): 1060 ng·h/mL
  AUC(0-t): 530 ng·h/mL
  Cmax: 64.4 ng/mL
  Tmax: 1 h
[2]; DL3, 3 mg/m2, n=3
  Cl: 2.7 (0.5) L/h/m2
  Vd: 37.5 L/m2
  Vss: 35.4 L/m2
  AUC(0-inf): 1580 ng·h/mL
  AUC(0-t): 1150 ng·h/mL
  Cmax: 124 ng/mL
  Tmax: 1 h
[2]; DL4, 4.5 mg/m2, n=3
  Cl: 3.7 (1.2) L/h/m2
  Vd: 49.7 L/m2
  Vss: 44.0 L/m2
  AUC(0-inf): 1850 ng·h/mL
  AUC(0-t): 1300 ng·h/mL
  Cmax: 178 ng/mL
  Tmax: 1 h
[2]; DL5, 6.75 mg/m2, n=3
  Cl: 3.8 (1.6) L/h/m2
  Vd: 48.2 L/m2
  Vss: 41.7 L/m2
  AUC(0-inf): 2510 ng·h/mL
  AUC(0-t): 1980 ng·h/mL
  Cmax: 273 ng/mL
  Tmax: 1 h
[2]; DL6, 9 mg/m2, n=2
  Cl: 3.4 (1.5) L/h/m2
  Vd: 62.7 L/m2
  Vss: 55.8 L/m2
  AUC(0-inf): 7200 ng·h/mL
  AUC(0-t): 2970 ng·h/mL
  Cmax: 296 ng/mL
  Tmax: 1 h
[2]; DL7 (MTD), 12 mg/m2, n=6
  Cl: 3.2 (1.5) L/h/m2
  Vd: 40.7 L/m2
  Vss: 38.5 L/m2
  AUC(0-inf): 5890 ng·h/mL
  AUC(0-t): 4270 ng·h/mL
  Cmax: 523 ng/mL
  Tmax: 1.1 h
[2]; DL8, 16 mg/m2, n=7
  Cl: 3.0 (1.4) L/h/m2
  Vd: 39.5 L/m2
  Vss: 37.1 L/m2
  AUC(0-inf): 8920 ng·h/mL
  AUC(0-t): 6170 ng·h/mL
  Cmax: 770 ng/mL
  Tmax: 1.1 h
[2]; 1 mg/m2, DL1, 1 mg/m2, n=1, read-out: t1/2 (converted)
  half-life: 38.6 h
[2]; 2 mg/m2, DL2, 2 mg/m2, n=7, read-out: t1/2 (converted)
  half-life: 20.8 h
[2]; 3 mg/m2, DL3, 3 mg/m2, n=3, read-out: t1/2 (converted)
  half-life: 13.6 h
[2]; 4.5 mg/m2, DL4, 4.5 mg/m2, n=3, read-out: t1/2 (converted)
  half-life: 13.8 h
[2]; 6.75 mg/m2, DL5, 6.75 mg/m2, n=3, read-out: t1/2 (converted)
  half-life: 11.5 h
[2]; 9 mg/m2, DL6, 9 mg/m2, n=2, read-out: t1/2 (converted)
  half-life: 31.4 h
[2]; 12 mg/m2, DL7 (MTD), 12 mg/m2, n=6, read-out: t1/2 (mean half-life) (converted)
  half-life: 12.6 h
[2]; 12 mg/m2, MTD (DL7, 12 mg/m^2, n = 6), read-out: Half-life, range
  half-life: 8.2 to 16 h
[2]; 16 mg/m2, DL8, 16 mg/m2, n=7, read-out: t1/2 (converted)
  half-life: 13.4 h
[2]; in vivo
  Dependence of half-life on dose: did not vary with dose level; also recorded: half-life was independent of dose
  Systemic exposure (AUC) versus dose level: increased linearly with dose level
